Source: patent US20230372277A1, “COMPOSITION FOR PROMOTING HAIR GROWTH AND/OR INHIBITING HAIR LOSS” (priority 2020, published 2023)
Marks after values point to notes of the source that are not given here.

What was measured:
hair follicles [1] = assay: Density of hair follicles in skin (number in 1 mm^2); assay type: in vivo, male wistar albino rats; conditions: testosterone-injected rats; for Rate of change compared to normal group (%) (density of hair follicles): Table 7, Equation 1, compounds or mixture oral 10 mg/kg daily 21 days
Description: The density of hair follicles was measured by counting the number of hair follicles in a unit area (1 mm^2).
Rate of change compared to normal group=(hair follicle density of negative control group or experimental group−hair follicle density of normal group)/hair follicle density of normal group (Equation 1)
(§1) The normal control group (control; normal group) is a group in which neither testosterone nor the extract is administered, and the negative control group (Testosterone; T) is a group in which only testosterone is administered.
as §1
As a comparative group, the mixture was administered by the same method, and the administration method was a method of intraperitoneal administration (IP). The normal control group (control; normal group) is a group in which neither testosterone nor the extract is administered, and the negative control group (Testosterone; T) is a group in which only testosterone is administered.

hair follicles [2] = assay: Ratio of anagen stage and telogen stage of hair follicles in skin; conditions: for Rate of change compared to normal group (anagen/telogen ratio) / Anagen/telogen ratio / Anagen / Telogen: testosterone-injected rats
Description: Male wistar albino rats weight 180 to 240 g, February to March age were bred under the conditions of a constant light-dark cycle in which light was applied from 8 am to 8 pm, a temperature of 22 to 25° C., and a relative humidity of 60%. For the feed of experimental animals, a general pellet dry feed was used, and feed and water were allowed to be consumed at all times.
In addition, the broccoli extract and/or avocado extract prepared in Example 1 were orally administered for a total of 21 days daily so as to be a dose of 100 mg per 1 kg of the body weight of each experimental animal (in case of coadministration group, broccoli extract 67 mg/kg+avocado extract 33 mg/kg).
Rate of change compared to normal group=(anagen/telogen ratio of negative control group or experimental group−anagen/telogen ratio of normal group)/anagen/telogen ratio of normal group (Equation 2)

hair follicles [3] = assay: Shape and length of hair follicles in haematoxylin and eosin stained dorsal skin; assay type: in vivo, male wistar albino rats; conditions: testosterone-injected rats; for length of hair follicles (FIG. 5): compounds or mixture oral 10 mg/kg daily 21 days, compared to negative control (negative control compared to normal group)
Description: By staining the skin tissue of experimental animals, the shape change of hair follicles was investigated. […] After 24 hours, the skin sample was soaked in paraffin wax and sectioned to a uniform thickness of 10 μm, and hair follicles were stained with haematoxylin and eosin.

[4] = tested on: dihydrotestosterone (DHT); assay: DHT concentration in plasma (ELISA kit) of testosterone-injected rats; assay type: in vivo, male wistar albino rats; conditions: for concentration of DHT in plasma (FIG. 4b): testosterone-injected rats, compounds or mixture oral 10 mg/kg daily 21 days
Description: (§2) For 21 days, the testosterone solution and broccoli extract, avocado extract or broccoli and avocado extract were administered, and on the next day, before skin samples were collected, plasma from rats was extracted and the concentration of testosterone and DHT were measured using a testosterone and DHT ELISA kit (Arigo Biolaboratories, Taiwan) according to the manufacturer's instructions.

testosterone = assay: Testosterone concentration in plasma (ELISA kit) of testosterone-injected rats; assay type: in vivo, male wistar albino rats; conditions: for concentration of testosterone in plasma (FIG. 4a): testosterone-injected rats, compounds or mixture oral 10 mg/kg daily 21 days
Description: as §2

[5] = Table 7, compounds or mixture (SFN 8 + I3C 1 + β-sitosterol 1 mg/kg) oral 10 mg/kg daily 21 days, mean ± SEM, n = 15
[6] = Table 8, Equation 2, compounds or mixture oral 10 mg/kg daily 21 days
[7] = Table 8, compounds or mixture oral 10 mg/kg daily 21 days
[8] = Table 8, compounds or mixture oral 10 mg/kg daily 21 days, listed as Group B, 10 mg/kg
[9] = Table 8, compounds or mixture oral 10 mg/kg daily 21 days, listed as testosterone solution, 10 mg/kg
[10] = rats injected s.c. with testosterone 21 days, extracts oral 100 mg/kg daily 21 days (mixture BE 67 + AE 33 mg/kg), negative control compared to normal group

SMILES: C[S+]([O-])CCCCN=C=S (stereo not drawn) [sulforaphane]
- Rate of change compared to normal group (%) (density of hair follicles) (hair follicles [1]; 10 mg/kg): about 47%
- Rate of change compared to normal group (%) (density of hair follicles) (hair follicles [1]; listed as Group C, 10 mg/kg): +47.33%
- Density of hair follicles (hair follicles [1]; [5]): 1.93 ± 0.102
- Rate of change compared to normal group (anagen/telogen ratio) (hair follicles [2]; [6]): −47.05%
- Anagen/telogen ratio (hair follicles [2]; [7]): 1.03*
- length of hair follicles (FIG. 5) (hair follicles [3]): increased
- concentration of DHT in plasma (FIG. 4b) [4]: significantly reduced
- concentration of testosterone in plasma (FIG. 4a) (testosterone): significantly reduced

SMILES: CC[C@H](CC[C@@H](C)[C@H]1CC[C@H]2[C@@H]3CC=C4C[C@@H](O)CC[C@]4(C)[C@H]3CC[C@]12C)C(C)C [β-sitosterol]
- Rate of change compared to normal group (%) (density of hair follicles) (hair follicles [1]; 10 mg/kg): about 68%
- Rate of change compared to normal group (%) (density of hair follicles) (hair follicles [1]; listed as Group E, 10 mg/kg): +67.56%
- Density of hair follicles (hair follicles [1]; [5]): 2.195 ± 0.093
- length of hair follicles (FIG. 5) (hair follicles [3]): increased
- concentration of DHT in plasma (FIG. 4b) [4]: significantly reduced

SMILES: C[C@]12CC[C@H]3[C@@H](CCC4=CC(=O)CC[C@@]43C)[C@@H]1CC[C@@H]2O [Testosterone, testosterone]
- Rate of change compared to normal group (hair follicle density) (hair follicles [1]; Table 2, Equation 1, extracts oral 100 mg/kg daily 21 days): −30.53%
- Hair follicle density (hair follicles [1]; Table 2, number of hair follicles in 1 mm^2, extracts oral 100 mg/kg daily 21 days, mean ± SEM, n = 15): 0.91 ± 0.069
- Hair follicle density (hair follicles [1]; Table 5, broccoli extracts by extraction solvent, same method as Example 3-2, mean ± standard error): 0.98 ± 0.23
- Rate of change compared to normal group (%) (density of hair follicles) (hair follicles [1]): −30.53%
- Density of hair follicles (hair follicles [1]; [5]): 0.91 ± 0.069
- Rate of change compared to normal group (density of hair follicles) (hair follicles [1]; Table 9, Equation 1, mixtures at various mixing ratios, oral 10 mg/kg in total daily 21 days): −21.6%
- Density of hair follicles (hair follicles [1]; Table 9, SFN:I3C:β-sitosterol mixtures at various mixing ratios, oral 10 mg/kg in total daily 21 days, mean ± standard error): 0.98 ± 0.23
- Rate of change compared to normal group (anagen/telogen ratio) (hair follicles [2]; Table 3, Equation 2, extracts oral 100 mg/kg daily 21 days): −91.23%
- Anagen (hair follicles [2]; Table 3, hair follicles in anagen stage, extracts oral 100 mg/kg daily 21 days, listed as Group 2, 100 mg/kg): 14.6
- Anagen (hair follicles [2]; Table 3, hair follicles in anagen stage, extracts oral 100 mg/kg daily 21 days, listed as testosterone solution, 100 mg/kg): reduced
- Telogen (hair follicles [2]; Table 3, hair follicles in telogen stage, extracts oral 100 mg/kg daily 21 days, listed as Group 2, 100 mg/kg): 85.4
- Telogen (hair follicles [2]; Table 3, hair follicles in telogen stage, extracts oral 100 mg/kg daily 21 days, listed as testosterone solution, 100 mg/kg): increased
- Anagen/telogen ratio (hair follicles [2]; Table 3, extracts oral 100 mg/kg daily 21 days): 0.171
- Rate of change compared to normal group (anagen/telogen ratio) (hair follicles [2]; [6]): −91.23%
- Anagen/telogen ratio (hair follicles [2]; [7]): 0.17
- Anagen (hair follicles [2]; [8]): 14.6
- Telogen (hair follicles [2]; [8]): 85.4
- Anagen (hair follicles [2]; [9]): reduced
- Telogen (hair follicles [2]; [9]): increased
- anagen/telogen ratio reduced compared to the normal group (hair follicles [2]; negative control group administered only with the testosterone solution s.c. 21 days): about 91%
- length of hair follicles (FIG. 5) (hair follicles [3]): largely reduced
- shape change of hair follicles (stained photograph, FIG. 2) (hair follicles [3]; extracts oral 100 mg/kg daily 21 days, H&E stained dorsal skin): many hair follicles in the telogen stage were found
- length of hair follicles (FIG. 3) (hair follicles [3]; extracts oral 100 mg/kg daily 21 days, extracts compared to negative control, negative control compared to normal group): largely reduced
- concentration of DHT in plasma (FIG. 1b) [4, 10]: largely increased
- concentration of DHT in plasma (FIG. 4b) [4]: largely increased
- concentration of testosterone in plasma (FIG. 1a) (testosterone; [10]): largely increased
- concentration of testosterone in plasma (FIG. 4a) (testosterone): largely increased

SMILES: OCc1c[nH]c2ccccc12 [indole-3-carbinol]
- Rate of change compared to normal group (%) (density of hair follicles) (hair follicles [1]; 10 mg/kg): about 21%
- Rate of change compared to normal group (%) (density of hair follicles) (hair follicles [1]; listed as Group D, 10 mg/kg): +21.37%
- Density of hair follicles (hair follicles [1]; [5]): 1.59 ± 0.74
- Rate of change compared to normal group (anagen/telogen ratio) (hair follicles [2]; [6]): −54.88%
- Anagen/telogen ratio (hair follicles [2]; [7]): 0.87*
- length of hair follicles (FIG. 5) (hair follicles [3]): increased
- concentration of DHT in plasma (FIG. 4b) [4]: significantly reduced
- concentration of testosterone in plasma (FIG. 4a) (testosterone): significantly reduced
